No end group written: not given here.
Tests used:
[1] = test system: VP6 45 kd capsid protein; experiment: Binding of 232-255 peptide to VP6 of purified virus (laddering on polyacrylamide gel electrophoresis)
Source text: Laddering occurred both at the VP6 monomeric molecular weight of 45 kd and at the aggregate molecular weights of 90 kd and 135 kd regions. The increment in the ladder steps matched the MW of the 232-255 peptide. Trypsin treatment of the virus/peptide complex reduced the ladder to a virus profile identical with that of the trypsin-treated virus. The ladder could be detected with antisera produced against the synthetic peptide.

[2] = test system: infectious virus on MA104 cells; experiment: Plaque reduction by 232-255 peptide mixed with infectious virus on MA104 cells; format: cell-based; conditions: 100 pfu virus with 100 μg, 200 μg and 300 μg peptide
Protocol: In a protocol similar to a standard plaque reduction assay, MA104 cells were treated with 100 pfu of the virus in the absence of and in the presence of 100 μg, 200 μg and 300 μg of the 232-255 peptide.

[3] = test system: BRV strain C486; experiment: Prophylactic oral 232-255 peptide in neonatal mice before challenge; format: in vivo; parameters: key to Diarrheal Score: 0: no sign of diarrhea in live mice, or on necropsy; +: no external signs of diarrhea but semi-liquid colon contents at autopsy; ++: fluid was apparent on palpation of the abdomen and the colon was filled with liquid feces and gas; +++: the external anal region was soiled with feces and intestinal fluid was present on palpation; ++++: liquid feces were present around the anal region and on palpation of the abdomen intestinal fluid was present and oozed from the anus; severe dehydration, internal liquid content in colon and caecum and distention due to accumulation of gas; conditions: for Diarrheal Score: about one hour before 10^4 pfu; for Virus Titre: mouse intestines; for Plasma D-Xylose: no challenge: 119
Protocol: The 232-255 peptide synthesized in Example 7 was diluted serially in Eagle's Minimal Essential Medium. The peptide solutions of various dilutions were administered in 100 μl dosages to neonatal mice by oral administration. The pups were born of rotavirus-free strain CD-1 dams and administration was at 7 days of age (when the pups weigh about 4 g). Approximately one hour later the mice were challenged with 10^4 pfu of BRV strain C486. Clinical protection was scored as described in Example 6. Diarrhea was scored clinically as well as on necropsy, and plasma D-xylose was determined by administering 100 μl of 5% w/v D-xylose solution, sacrificing the mice two hours later, collecting the blood and determining plasma D-xylose concentration as described above. Virus titers were determined in the mouse intestines by suspending in MEM and homogenizing for virus titration. Mice which received no challenge had plasma D-xylose levels of 119 μg/100 μl and zero viral titers.

[4] = test system: trypsin; experiment: Trypsin susceptibility and competition with intact VP4 for trypsin; format: biochemical; conditions: for cleavage of VP4 by trypsin in presence of peptide: FIG. 8
Protocol: Susceptibility of the synthetic peptide to trypsin was confirmed by reaction with trypsin followed by electrophoresis. […] It was also established that the peptide could compete with intact VP4 for the enzyme. This was determined by measuring the ability of increasing concentrations of the synthetic peptide to reduce the amount of VP4 cleaved into the two products of molecular weight 60 kd and 28 kd.

[5] = test system: bovine rotavirus isolate C486; experiment: 50% plaque reduction assay on sera of mice immunized with KLH-conjugated VP7 peptides; format: in vivo, CD-1 mice; conditions: sera of mice given KLH-conjugated peptides; FIG. 7
Protocol: The sera obtained in Example 3 were tested for their ability to neutralize the infectivity of the bovine rotavirus isolate C486 using a standard 50% plaque reduction assay. In this assay, virus dilutions representing 30-50 PFU were mixed 1:1 with various dilutions of antibody and incubated for 1 hour at 37° C. Virus attachment to MA104 monolayers was allowed to proceed at 37° C. for 2 hours before the virus inoculum was removed; the cells were washed with MEM and then overlaid with 1.6% Bacto-agar (Difco) diluted in MEM and supple-mented with 5 μg of pancreatin per ml, 0.7% of a 1:1000 neutral red stock solution, and 0.1% DEAE-dextran. Plaques appeared after 5 to 6 days of incubation at 37° C.

[6] = test system: Monospecific anti-glycoprotein (VP7) serum; experiment: ELISA reactivity of synthetic peptides with monospecific anti-VP7 serum; format: binding; conditions: reciprocal of the dilution giving a 50% end point
Protocol: (§1) The reactivity and specificity of the synthetic peptides were determined by ELISA using either anti-VP7 monospecific VP7 serum or monoclonal antibodies specific for the various regions of VP7 and by adsorption blocking assays. […] As shown in the table, while all of the peptides were immunoreactive with the antiserum, only the peptides representing positions 247-259 and 275-295 were specifically immunoreactive with monoclonals directed to particular determinants.
(§2) ^a Antibody titers were determined by ELISA and are expressed as the
(§3) reciprocal of the dilution giving a 50% end point.

[7] = test system: Monoclonal antibody 11D12-6; experiment: ELISA reactivity of synthetic peptides with monoclonal antibody 11D12-6; format: binding; conditions: reciprocal of the dilution giving a 50% end point
Protocol: as §1, §2, §3

[8] = test system: Monoclonal antibody 11D10-4; experiment: ELISA reactivity of synthetic peptides with monoclonal antibody 11D10-4; format: binding; conditions: reciprocal of the dilution giving a 50% end point
Protocol: as §1, §2, §3

[9] = test system: Monoclonal antibody 4B5-5; experiment: ELISA reactivity of synthetic peptides with monoclonal antibody 4B5-5; format: binding; conditions: reciprocal of the dilution giving a 50% end point
Protocol: as §1, §2, §3

[10] = test system: virus attachment to MA104 cells; experiment: Adsorption blocking assay: inhibition of attachment of virus to MA104 cells; format: cell-based; conditions: FIG. 5
Protocol: as §1

[11] = test system: Monoclonal antibody 10D207; experiment: ELISA reactivity of synthetic peptides with monoclonal antibody 10D207; format: binding; conditions: reciprocal of the dilution giving a 50% end point
Protocol: as §1, §2, §3

NIAPASIVSRNIVYTRAQPNDIA [Peptide 232-255]
laddering of VP6 on polyacrylamide gel electrophoresis ([1]; 25 μg peptide with 2 μg purified virus): laddering was not apparent | laddering of VP6 on polyacrylamide gel electrophoresis ([1]; 100 μg peptide with 2 μg purified virus, 30 minutes at 37° C.): showed a laddering effect | plaque reduction [2]: capable of plaque reduction in a dose-dependent manner | Diarrheal Score ([3]; 100 μg peptide oral): +++ | Virus Titre ([3]; 100 μg peptide oral): 1.2 × 10^3 PFU/ml | Plasma D-Xylose ([3]; 100 μg peptide oral): 92 μg/100 μl | Diarrheal Score ([3]; 250 μg peptide oral): ++ | Virus Titre ([3]; 250 μg peptide oral): 4.0 × 10^2 PFU/ml | Plasma D-Xylose ([3]; 250 μg peptide oral): 70 μg/100 μl | Diarrheal Score ([3]; 500 μg peptide oral): 0 | Virus Titre ([3]; 500 μg peptide oral): 0 PFU/ml | Plasma D-Xylose ([3]; 500 μg peptide oral): 101 μg/100 μl | Diarrheal Score ([3]; 1000 μg peptide oral): 0 | Virus Titre ([3]; 1000 μg peptide oral): 0 PFU/ml | Plasma D-Xylose ([3]; 1000 μg peptide oral): 112 μg/100 μl | cleavage of VP4 by trypsin in presence of peptide ([4]; 25 μg (232-255)/25 μg VP4): complete cleavage of VP4 | susceptibility of the peptide to trypsin ([4]; reaction with trypsin followed by electrophoresis): cleaved by trypsin in a dose-dependent manner | cleavage of VP4 by trypsin in presence of peptide ([4]; synthetic peptide increased to 200 μg): intact VP4 is evident

RNCKKLGPRENVA [p247-259]
virus-neutralizing antibodies induced (50% plaque reduction assay) [5]: induced virus-neutralizing antibodies | Antibody titer (ELISA), monospecific anti-glycoprotein (VP7) serum with synthetic peptide [6]: 1,000 | Antibody titer (ELISA), monoclonal antibody 11D12-6 with synthetic peptide [7]: 100 | Antibody titer (ELISA), monoclonal antibody 11D10-4 with synthetic peptide [8]: 4,000 | Antibody titer (ELISA), monoclonal antibody 4B5-5 with synthetic peptide [9]: 5,000 | ability to inhibit attachment of virus to MA104 cells [10]: able to block virus attachment | Antibody titer (ELISA), monoclonal antibody 10D207 with synthetic peptide [11]: 20

YQQTDEANK [p174-183]
Antibody titer (ELISA), monospecific anti-glycoprotein (VP7) serum with synthetic peptide [6]: 2,500 | Antibody titer (ELISA), monoclonal antibody 11D12-6 with synthetic peptide [7]: 10 | Antibody titer (ELISA), monoclonal antibody 11D10-4 with synthetic peptide [8]: 10 | Antibody titer (ELISA), monoclonal antibody 4B5-5 with synthetic peptide [9]: 50 | Antibody titer (ELISA), monoclonal antibody 10D207 with synthetic peptide [11]: 10

Reference: patent publication US6086880A, “Rotavirus peptide compositions and methods of use” (The University of Saskatchewan, priority 1993, dated 2000)
